Data: ChEMBL document CHEMBL5550219, “Distinct Amino Acid-Based PROTACs Target Oncogenic Kinases for Degradation in Non-Small Cell Lung Cancer (NSCLC)” (J Med Chem, 2024)
The source made the active and inactive calls. No cut-off for these calls is given here.

Assays:
[1] = molecular target: T1, ZYG11B/ZER1/EML4-ALK (Homo sapiens, UniProt Q9UM73+Q9HC35+Q9C0D3+Q7Z7L7); experiment: PROTAC (AATac) activity at ZYG11B/ZER1/EML4-ALK in human NCI-H3122 cells harboring shZYG11B assessed as protein degradation incubated for 24 hrs by immunoblot analysis; format: cell-based
[2] = test system: NCI-H3122; experiment: Antitumor activity against human NCI-H3122 cells xenografted in nude mouse assessed as reduction in ALK level at 10 mg/kg, ip measured after 24 hrs by immunoblot analysis; format: functional, organism-based
[3] = molecular target: T1, ZYG11B/ZER1/EML4-ALK; experiment: PROTAC (AATac) activity at ZYG11B/ZER1/EML4-ALK in human NCI-H3122 cells assessed as protein degradation at 10 uM incubated for 48 to 72 hrs by immunoblot analysis relative to control; format: cell-based; conditions: time 48-72 hrs
[4] = test system: PC-9; experiment: Effect on EGFR del19 mutant expression in human PC-9 cells upto 20 uM incubated for 72 hrs by immunoblot analysis; format: functional, cell-based
[5] = test system: NCI-H1975; experiment: Inhibition of cell viability in human NCI-H1975 cells incubated for 48 to 72 hrs by CCK8 assay
[6] = test system: Protein zyg-11 homolog B/Protein zer-1 homolog/Epidermal growth factor receptor (Homo sapiens), P00533+Q9C0D3+Q7Z7L7 [L858R,T790M]; experiment: PROTAC (AATac) activity at ZYG11B/ZER1/EGFR L858R/T790M mutant in human NCI-H1975 cells assessed as protein degradation at 20 uM incubated for 48 to 72 hrs by immunoblot analysis relative to control; format: cell-based; conditions: time 48-72 hrs
[7] = test system: Protein zyg-11 homolog B/Protein zer-1 homolog/Epidermal growth factor receptor (Homo sapiens), P00533+Q9C0D3+Q7Z7L7 [L858R,T790M]; experiment: PROTAC (AATac) activity at ZYG11B/ZER1/EGFR L858R/T790M mutant in human NCI-H1975 cells assessed as protein degradation upto 20 uM incubated for 72 hrs by immunoblot analysis; format: cell-based
[8] = test system: A549; experiment: Effect on wild-type EGFR expression in human A549 cells upto 20 uM incubated for 72 hrs by immunoblot analysis; format: functional, cell-based
[9] = test system: Protein zyg-11 homolog B/Protein zer-1 homolog/Epidermal growth factor receptor (Homo sapiens), P00533+Q9C0D3+Q7Z7L7 [L858R,T790M]; experiment: PROTAC (AATac) activity at ZYG11B/ZER1/EGFR L858R/T790M mutant in human NCI-H1975 cells harboring shZYG11B assessed as protein degradation incubated for 72 hrs by immunoblot analysis; format: cell-based
[10] = test system: Protein zyg-11 homolog B/Protein zer-1 homolog/Epidermal growth factor receptor (Homo sapiens), P00533+Q9C0D3+Q7Z7L7 [L858R,T790M]; experiment: PROTAC (AATac) activity at ZYG11B/ZER1/EGFR L858R/T790M mutant in human NCI-H1975 cells harboring shZER1 assessed as protein degradation incubated for 72 hrs by immunoblot analysis; format: cell-based
[11] = molecular target: Protein zyg-11 homolog B/Protein zer-1 homolog/Epidermal growth factor receptor (Homo sapiens, UniProt P00533+Q9C0D3+Q7Z7L7, T790M/L858R); experiment: PROTAC (AATac) activity at ZYG11B/ZER1/EGFR L858R/T790M mutant in human NCI-H1975 cells assessed as protein degradation incubated for 48 to 72 hrs by immunoblot analysis; format: cell-based
[12] = molecular target: T1, ZYG11B/ZER1/EML4-ALK; experiment: PROTAC (AATac) activity at ZYG11B/ZER1/EML4-ALK in human NCI-H3122 cells assessed as protein degradation at 10 uM incubated for […] by immunoblot analysis; format: cell-based
[13] = test system: NCI-H1299; experiment: Effect on wild-type EGFR expression in human NCI-H1299 cells upto 20 uM incubated for 72 hrs by immunoblot analysis; format: functional, cell-based
[14] = molecular target: T1, ZYG11B/ZER1/EML4-ALK; experiment: PROTAC (AATac) activity at ZYG11B/ZER1/EML4-ALK in human NCI-H3122 cells harboring shZER1 assessed as protein degradation incubated for 24 hrs by immunoblot analysis; format: cell-based
[15] = molecular target: T1, ZYG11B/ZER1/EML4-ALK; experiment: PROTAC (AATac) activity at ZYG11B/ZER1/EML4-ALK in human NCI-H3122 cells assessed as protein degradation incubated for 48 to 72 hrs by immunoblot analysis; format: cell-based
[16] = test system: Protein zyg-11 homolog B/Protein zer-1 homolog/Epidermal growth factor receptor (Homo sapiens), P00533+Q9C0D3+Q7Z7L7 [L858R,T790M]; experiment: PROTAC (AATac) activity at ZYG11B/ZER1/EGFR L858R/T790M mutant in human NCI-H1975 cells assessed as protein degradation at 20 uM incubated for 24 hrs by immunoblot analysis; format: cell-based
[17] = molecular target: T1, ZYG11B/ZER1/EML4-ALK; experiment: PROTAC (AATac) activity at ZYG11B/ZER1/EML4-ALK in human NCI-H3122 cells assessed as protein degradation upto 20 uM incubated for 72 hrs by immunoblot analysis; format: cell-based
[18] = test system: NCI-H3122; experiment: Inhibition of cell viability in human NCI-H3122 cells incubated for 48 to 72 hrs by CCK8 assay
[19] = molecular target: UBR/ALK tyrosine kinase receptor/Echinoderm microtubule-associated protein-like 4; experiment: PROTAC (AATac) activity at UBR1/2/4/EML4-ALK in human NCI-H3122 cells assessed as protein degradation incubated for 48 to 72 hrs by immunoblot analysis; format: cell-based
[20] = molecular target: UBR/Epidermal growth factor receptor (Homo sapiens, UniProt P00533+Q5T4S7+Q8IWV7+Q8IWV8, T790M/L858R); experiment: PROTAC (AATac) activity at UBR1/2/4/EGFR L858R/T790M mutant in human NCI-H1975 cells assessed as protein degradation incubated for 48 to 72 hrs by immunoblot analysis; format: cell-based
[21] = test system: UBR/Epidermal growth factor receptor (Homo sapiens), P00533+Q5T4S7+Q8IWV7+Q8IWV8 [L858R,T790M]; experiment: PROTAC (AATac) activity at UBR1/2/4/EGFR L858R/T790M mutant in human NCI-H1975 cells assessed as protein degradation upto 20 uM incubated for 72 hrs by immunoblot analysis; format: cell-based
[22] = test system: UBR/Epidermal growth factor receptor (Homo sapiens), P00533+Q5T4S7+Q8IWV7+Q8IWV8 [L858R,T790M]; experiment: PROTAC (AATac) activity at UBR1/2/4/EGFR L858R/T790M mutant in human NCI-H1975 cells assessed as protein degradation at 20 uM incubated for 48 to 72 hrs by immunoblot analysis relative to control; format: cell-based; conditions: time 48-72 hrs
[23] = test system: UBR/Epidermal growth factor receptor (Homo sapiens), P00533+Q5T4S7+Q8IWV7+Q8IWV8 [L858R,T790M]; experiment: PROTAC (AATac) activity at UBR1/2/4/EGFR L858R/T790M mutant in human NCI-H1975 cells assessed as protein degradation at 20 uM incubated for 48 hrs by immunoblot analysis; format: cell-based
[24] = molecular target: T2, UBR/ALK tyrosine kinase receptor/Echinoderm microtubule-associated protein-like 4 (Homo sapiens) (UniProt Q9UM73+Q9HC35+Q5T4S7+Q8IWV7+Q8IWV8); experiment: PROTAC (AATac) activity at UBR1/2/4/EML4-ALK in human NCI-H3122 cells assessed as protein degradation upto 20 uM incubated for 72 hrs by immunoblot analysis; format: cell-based
[25] = molecular target: T2, UBR/ALK tyrosine kinase receptor/Echinoderm microtubule-associated protein-like 4 (Homo sapiens); experiment: PROTAC (AATac) activity at UBR1/2/4/EML4-ALK in human NCI-H3122 cells assessed as protein degradation at 10 uM incubated for 48 to 72 hrs by immunoblot analysis relative to control; format: cell-based; conditions: time 48-72 hrs
[26] = molecular target: T2, UBR/ALK tyrosine kinase receptor/Echinoderm microtubule-associated protein-like 4 (Homo sapiens); experiment: PROTAC (AATac) activity at UBR1/2/4/EML4-ALK in human NCI-H3122 cells assessed as protein degradation at 10 uM incubated for approximately 3 hrs by immunoblot analysis; format: cell-based
[27] = test system: NCI-H3122; experiment: Effect on EML4-ALK expression in human NCI-H3122 cells upto 20 uM incubated for 72 hrs by immunoblot analysis; format: functional, cell-based
[28] = test system: Epidermal growth factor receptor (Homo sapiens), P00533 [L858R,T790M]; experiment: Induction of EGFR L858R/T790M mutant degradation in human NCI-H1975 cells harboring sgGID4 at 1 to 20 uM incubated for 24 hrs by immunoblot analysis; format: cell-based; conditions: dose 1-20 µM
[29] = test system: Epidermal growth factor receptor (Homo sapiens), P00533 [L858R,T790M]; experiment: Inhibition of EGFR L858R/T790M mutant phosphorylation in human NCI-H1975 cells harboring sgGID4 at 1 to 20 uM incubated for 24 hrs by immunoblot analysis; format: cell-based; conditions: dose 1-20 µM
[30] = test system: NCI-H3122; experiment: Inhibition of EML4-ALK phosphorylation in human NCI-H3122 cells at 2.5 uM incubated for 48 hrs followed by compound removal and incubation in drug-free medium for 12 to 72 hrs by immunoblot analysis; format: cell-based
[31] = test system: Glucose-induced degradation protein 4 homolog/Epidermal growth factor receptor (Homo sapiens), P00533+Q8IVV7 [L858R,T790M]; experiment: Inhibition of EGFR L858R/T790M mutant phosphorylation in human NCI-H1975 cells at 20 uM incubated for 72 hrs followed by compound removal and incubation in drug-free medium for 12 to 72 hrs by immunoblot analysis; format: cell-based

Structure (SMILES): COc1cc(N2CCN(C(=O)CCOCCOCCOCCNC(=O)CN)CC2)ccc1Nc1ncc(Cl)c(Nc2ccccc2P(C)(C)=O)n1
- Activity [1]: inactive
- Activity [2]: Active
- Emax [3]: 98%
- Activity [4]: inactive
- IC50 [5]: 20.7 µM
- Activity [6]: 43%
- Activity [7]: Active
- Activity [8]: inactive
- Activity [9]: inactive
- Activity [10]: inactive
- DC50 [11]: 20.1 µM
- Activity [12]: Active
- Activity [13]: inactive
- Activity [14]: inactive
- DC50 [15]: 500 nM
- Activity [16]: Active
- Activity [17]: Active
- IC50 [18]: 840 nM

Structure (SMILES): COc1cc(N2CCN(C(=O)CCOCCOCCOCCNC(=O)[C@@H](N)CCCCN)CC2)ccc1Nc1ncc(Cl)c(Nc2ccccc2P(C)(C)=O)n1
- DC50 [19]: 1320 nM
- Activity [4]: inactive
- IC50 [5]: 18.6 µM
- Activity [8]: inactive
- DC50 [20]: 19.7 µM
- Activity [21]: Active
- Activity [22]: 52%
- Activity [23]: Active
- Activity [13]: inactive
- Activity [24]: Active
- Emax [25]: 91%
- Activity [26]: Active
- IC50 [18]: 5300 nM

Structure (SMILES): COc1cc(N2CCN(C(=O)CCOCCOCCOCCNC(=O)[C@@H](N)CCCN)CC2)ccc1Nc1ncc(Cl)c(Nc2ccccc2P(C)(C)=O)n1
- Activity [27]: inactive

Structure (SMILES): COc1cc(N2CCNCC2)ccc1Nc1ncc(Cl)c(Nc2ccccc2P(C)(C)=O)n1
- Activity [28]: inactive
- Activity [29]: inactive
- Activity [27]: inactive
- IC50 [5]: 0.88 µM
- inhibition [30]: inactive
- inhibition [31]: inactive
- IC50 [18]: 300 nM
